According to patent US12692529B2, “Quantitative screen for the assessment of inter-individual variability in drug metabolism by the human gut microbiome” (The Trustees of Princeton University, priority 2020, dated 2026):

Legend:
[1] = system: ex vivo cultures of donor gut microbiome (BG medium); test: MDMQ-Screen 20-donor screen: drug depletion and metabolite production in ex vivo cultures, targeted metabolomics by HPLC-HRMS; conditions: for MDM in drug depletion across donors / MDM in metabolite production across donors / MDM (microbiome-derived metabolism) across donors: 20 donors, BG medium, drug 33 μM, 24-hour incubation; for MDM in drug depletion across donors: significant if FDR p<0.01 and depletion >50% vs controls; for MDM in metabolite production across donors: significant if FDR p<0.01 vs all three controls; for Pearson correlation coefficient of drug signal and sum of known metabolite signals (drug depletion vs metabolite production): all donor-drug ex vivo samples, known (quantified) metabolites only
[2] = system: ex vivo cultures of donor gut microbiome (BG medium); test: Untargeted metabolomics with molecular ion networking for new metabolite discovery in the 20-donor screen; type: in vitro ADME, human
Protocol: In order to extract all features in a given sample, a batch recursive feature extraction method for small molecules and peptides within Profinder 8 (Agilent) can be used. The following settings in the method were changed from default: compound ion count threshold set to two ions, alignment retention time tolerance set to 0.2 min, minimum MFE score set to 90, minimum file prevalence set to 2, expected retention time set to ±1 min, retention time contribution to matching score set to 90, expected MS1 mass variation set to 10 ppm, expected retention time tolerance set to 0.2 min, absolute height threshold for EIC integration set to 2500 counts, and final absolute height threshold set to 5000. The resulting feature abundances were then analyzed in MATLAB. Any sample whose internal standard AUC is less than 10^6 was removed. Hypothesis testing was then performed using similar statistical methods as for metabolite production in the targeted metabolomics, except that the multiple hypothesis correction of Storey (Storey, 2002) was used in place of the Benjamini-Hochberg method and require a fold-change cut-off of two relative to all controls. […] All ions already quantified in the screen and all features that are statistically significant for more than one drug are removed. […]

| SMILES | MDM in drug depletion across donors [1] | MDM in metabolite production across donors [1] | other results |
| --- | --- | --- | --- |
| CCCCC(C)(O)C/C=C/[C@H]1[C@H](O)CC(=O)[C@@H]1CCCCCCC(=O)OC (mixture of isomers) [misoprostol] | consistently positive |  |  |
| CCCCCOC(=O)Nc1nc(=O)n([C@@H]2O[C@H](C)[C@@H](O)[C@H]2O)cc1F [capecitabine] | variable | variable |  |
| CC(C)/N=c1\cc2n(-c3ccc(Cl)cc3)c3ccccc3nc-2cc1Nc1ccc(Cl)cc1 [clofazimine] | variable | variable |  |
| O=C1CN=C(c2ccccc2Cl)c2cc([N+](=O)[O-])ccc2N1 [clonazepam] | consistently positive | consistently positive |  |
| C[C@]12CCC(=O)C=C1CC[C@@H]1[C@@H]2[C@@H](O)C[C@@]2(C)[C@H]1CC[C@]2(O)C(=O)CO [hydrocortisone] | variable |  |  |
| CC(=O)N1CCN(c2ccc(OCC3COC(Cn4ccnc4)(c4ccc(Cl)cc4Cl)O3)cc2)CC1 (stereo not drawn) [ketoconazole] |  |  | MDM (microbiome-derived metabolism) across donors [1]: consistently negative |
| C#C[C@]1(O)CC[C@H]2[C@@H]3CCC4=CC(=O)CC[C@@H]4[C@H]3CC[C@@]21CC [levonorgestrel] | variable |  |  |
| CC[C@H](C)C(=O)O[C@H]1C[C@@H](C)C=C2C=C[C@H](C)[C@H](CC[C@@H]3C[C@@H](O)CC(=O)O3)[C@H]21 [lovastatin] | variable | variable |  |
| COc1c(C)c2c(c(O)c1C/C=C(\C)CCC(=O)OCCN1CCOCC1)C(=O)OC2 [mycophenolate mofetil] | variable | variable |  |
| COC(=O)C1=C(C)NC(C)=C(C(=O)OCCN(C)Cc2ccccc2)C1c1cccc([N+](=O)[O-])c1 (stereo not drawn) [nicardipine] |  |  | number of additional metabolites detected by the untargeted metabolomics pipeline [2]: 11; Pearson correlation coefficient of drug depletion and metabolite production after inclusion of metabolites discovered by untargeted metabolomics ([1]; after inclusion of 11 additional metabolites, FDR corrected p=0.0102): −0.6; Pearson correlation coefficient of drug signal and sum of known metabolite signals (drug depletion vs metabolite production) [1]: −0.22 |
| Cc1nc2n(c(=O)c1CCN1CCC(c3noc4cc(F)ccc34)CC1)CCCC2 [risperidone] | consistently positive |  |  |
| CCCN(CCC)CCc1cccc2c1CC(=O)N2 [ropinirole] |  |  | MDM (microbiome-derived metabolism) across donors [1]: consistently negative |
| CC(=O)S[C@@H]1CC2=CC(=O)CC[C@]2(C)[C@H]2CC[C@@]3(C)[C@@H](CC[C@@]34CCC(=O)O4)[C@H]12 [spironolactone] | consistently positive | variable |  |
| CC1=C(CC(=O)O)c2cc(F)ccc2/C1=C\c1ccc([S+](C)[O-])cc1 (stereo not drawn) [sulindac] | variable | variable |  |
| Cc1ccc(C(=O)c2cc(O)c(O)c([N+](=O)[O-])c2)cc1 [tolcapone] |  | consistently positive |  |
| Cc1cccc(Nc2ccncc2S(=O)(=O)NC(=O)NC(C)C)c1 [torsemide] |  |  | MDM (microbiome-derived metabolism) across donors [1]: consistently negative |
| O=C(CCCCCCC(=O)Nc1ccccc1)NO [vorinostat] | variable |  | Pearson correlation coefficient of drug signal and sum of known metabolite signals (drug depletion vs metabolite production) [1]: −0.91 |
